Reference: a melting point compilation (Tetko et al.; mined from patent text by program, amines drawn as free bases though some values may be those of a salt)

SMILES | melting point
CCN(CC)C(=O)c1nc(/C=C/c2ccc([N+](=O)[O-])o2)no1 | 118 to 119 °C
CCOC(=O)c1c(Nc2cccc(SC)c2)n[nH]c1C | 192 to 194 °C
Cc1c(C)c2c(c(C)c1N)CC(C)(CN1CCC(OCC=Cc3ccccc3)CC1)O2 (configuration not stated) | 77 to 79 °C
COC(=O)c1cc(OC)c(Cc2c(N)nc(N)nc2Cl)c(OC)c1 | 228 to 229 °C
N#CCN[C@H]1CCc2c(F)cc(F)cc2C1 | 73 to 76 °C
CCOC(=O)c1cc2cc(OCSN(C)C)ccc2oc1=O | 157 to 160 °C
COc1ccc(C[C@H]2[C@H](CO)CCCN2C)cc1 (relative stereo) | 66 to 68 °C
COCC1OC(n2cnc3c(N)ncnc32)C(O)C1O (configuration not stated) | 112 to 114 °C
NS(=O)(=O)c1ccccc1CN1CCCC1=O | 149 to 151 °C
CC1(C)Oc2ccc(C#N)cc2[C@@H](N2CCN(C(=O)c3ccco3)CC2=O)[C@@H]1O (relative stereo) | 226 to 229 °C
CC(c1cccc(-c2ncc(OCCCN(C)C)cn2)c1)n1nc(-c2cccc(C#N)c2)ccc1=O (configuration not stated) | 105 to 107 °C
Cc1cccc(N(CCO)Cc2ccc3nc(N)n(Cc4nc(C)ccc4O)c3c2)c1 | 210 °C
C=Cc1cc2c(c3ccc(O)cc13)OCc1cc(O)ccc1-2 | > 220 °C
O=C(O)c1cnc2ccc(-c3ccc(Cl)cc3)cn12 | 206 °C
COC(=O)CCS(=O)(=O)c1cc(C(C)(C)C)c(O)c(C(C)(C)C)c1 | 109 to 111 °C
O=C(O)c1ccc(C2=CCC3CCC2C3)cc1 (configuration not stated) | 180 to 181 °C
Clc1nc2ccccc2nc1Nc1cccc2ccccc12 | 157 to 159 °C
Cc1coc(NC(=S)Nc2c(C)cccc2Cl)n1 | 222 °C
CCCCCCCCC(=N)NC(=S)Nc1ccc(Cl)cc1 | 102 to 103 °C
Cc1ccccc1Oc1ccc2ccc(N)nc2n1 | 192 °C
COc1ccc2c(c1O)CCN(C=O)[C@@H]2c1cc(OC)c(OC)c(OC)c1 | 190 to 192 °C

SMILES | melting point
Cc1cc(C)nc(NC(C(=O)O)C(c2ccccc2)c2ccccc2)n1 (configuration not stated) | 172 to 174 °C
COC(=O)c1ccccc1NC(=O)CNc1ccccc1Br | 89 to 91 °C
C(#Cc1cccnc1)c1ccccc1 | 42 to 43 °C
CC(=NNC(=O)c1ccncc1)c1ccc2nnn(Cc3ccc4ncccc4c3)c2n1 | 239 to 241 °C
O=c1[nH]c2cc(F)ccc2c(=O)n1CCCN1CC=C(c2ccc(Cl)cc2)CC1 | 197 to 198 °C
COC(=O)CCS(=O)c1cc(C(C)(C)C)c(O)c(C(C)(C)C)c1 (configuration not stated) | 106 to 108 °C
Oc1ccc(-c2cc3c(Br)c(O)ccc3o2)cc1 | 196 to 198 °C
CCOc1nc2c(c3ccccc13)c1cc(Cl)ccc1n2C | 161 to 163 °C
O=S(=O)(Nc1c(F)c(F)nc(F)c1F)C(F)(F)F | 69 to 70 °C
O=c1[nH]c2ccc(Cl)cc2n2ccnc12 | > 300 °C
CCCCNC(P(=O)(O)O)P(=O)(O)O | 188 to 189 °C
CC(=O)c1cc(C)cc(NC(=O)c2nnnn2Cc2ccccc2)c1O | 183 to 184 °C
CCN(CC)C(=S)SC(C[N+](=O)[O-])c1ccccc1 (configuration not stated) | 81 to 82.5 °C
Cn1c(=O)c2nc(-c3ccc(/C=C/C(=O)O)cc3)[nH]c2n(Cc2ccccc2)c1=O | > 300 °C
CC(=O)OCCC1CC(=O)N1 (configuration not stated) | 44 to 47 °C
COCCOCCOc1ccc(C2=N[C@@](C)(C(=O)O)CS2)c(O)c1 | 82 to 83 °C
O=C(N[C@H]1CC[C@H](CCN2CCC(c3cccc4c3CCO4)CC2)CC1)C(F)(F)F | 173 °C
CCOC(=O)Cn1c(C(=O)NCc2nnc(C)n2-c2sc(C)cc2C(=O)c2ccccc2Cl)cc2ccccc21 | 153 to 154 °C
CN(C)CCOc1cc(O)cc(/C=C/c2ccc(O)cc2)c1 | 92 to 94 °C
CC12CCC(OC(=O)C(F)(F)F)CC1=CCC1=C2CCC2(C)C(=O)CCC12 (configuration not stated) | 109 to 115 °C
COc1ccc2cccc(C(=O)C(=O)O)c2c1 | 99 °C
